Source: patent US20240270762A1, “PENICILLIN-BINDING PROTEIN INHIBITORS” (priority 2021, published 2024)

target: T1, PBP3 from Acinetobacter baumannii (ATCC 19606) (Acinetobacter baumannii, UniProt A0ABX6CK25); assay: Bocillin-FL fluorescence polarization competition binding, A. baumannii PBP3; conditions: fluorescence polarization competition binding assay using Bocillin-FL; read-out: A. baumannii PBP3 Potency
T1 sequence (A0ABX6CK25 64-610): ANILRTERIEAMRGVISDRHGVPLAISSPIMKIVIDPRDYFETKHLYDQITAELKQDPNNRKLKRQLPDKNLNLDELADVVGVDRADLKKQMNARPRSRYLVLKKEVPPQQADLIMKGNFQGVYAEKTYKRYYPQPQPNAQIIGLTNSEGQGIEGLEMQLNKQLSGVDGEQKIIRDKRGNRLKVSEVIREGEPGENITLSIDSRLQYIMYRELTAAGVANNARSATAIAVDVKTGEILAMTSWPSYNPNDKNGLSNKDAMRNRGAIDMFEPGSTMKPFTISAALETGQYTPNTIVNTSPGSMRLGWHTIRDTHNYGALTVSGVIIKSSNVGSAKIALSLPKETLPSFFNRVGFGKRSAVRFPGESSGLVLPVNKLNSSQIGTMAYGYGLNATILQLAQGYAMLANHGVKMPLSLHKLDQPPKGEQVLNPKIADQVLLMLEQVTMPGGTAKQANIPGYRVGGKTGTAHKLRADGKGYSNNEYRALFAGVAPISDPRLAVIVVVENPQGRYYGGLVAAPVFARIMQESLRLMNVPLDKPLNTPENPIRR
From the text: To determine the ability of boronic acid-based test PBP inhibitors to bind Penicillin Binding Proteins (PBPs), Bocillin-FL (fluorescently-labeled penicillin V; ThermoFisher Scientific) was used in a fluorescence polarization (FP) competition binding assay to assess inhibitor binding to PBP3 from Escherichia coli (K-12), PBP3 from Pseudomonas aeruginosa (PAO1), PBP1a and PBP3 from Acinetobacter baumannii (ATCC 19606), and PBP2 from Neisseria gonorrhoeae (FA19). PBPs were cloned and purified as described previously (E. coli PBP3, King, D. T, et al., ACS Infectious Diseases 2015, 1, 175-184; P. aeruginosa PBP3, Han et. al., PNAS 2010, 107 (51), 22002-22007; A. baumannii PBPs, Penwell et. al., Antimicrob. Agents Chemother. 2015, 59 (3), 1680-1689; N. gonorrhoeae PBP2, Singh et. al., J. Biol. Chem. 2019, 294 (38), 14020-14032). To establish assay conditions for competition binding, enzyme titration/saturation binding experiments were initially performed. Bocillin-FL was prepared at 0.2 μM in a buffer comprised of 50 mM Hepes (pH 8.0), 300 mM NaCl and 10% (v/v) glycerol for reactions with E. coli, P. aeruginosa and N. gonorrhoeae PBPs, and 25 mM Tris (pH 8.0), 200 mM NaCl, 10% (v/v) glycerol and 0.005% (v/v) Tween 20 for reactions with A. baumannii PBPs. Saturation binding was performed by mixing 40 μl of PBP solutions ranging in concentrations from 0-24 μM with 40 μl of the 0.2 μM Bocillin-FL solution, in individual wells of a black 384-well microplate. FP was measured immediately upon mixing (Excitation, 490 nm; Emission, 520 nm; g-factor, 0.96), using a Cytation3 (BioTek) microplate reader and measured continuously for up to 120 minutes. The FP response stabilized after 15 minutes for P. aeruginosa and A. baumannii PBP3, 30 minutes for E. coli PBP3 and A. baumannii PBP1a, and less than 1 minute for N. gonorrhoeae PBP2. […] The competition binding assay (80 μl final volume) was validated using beta-lactams and PBPs at final concentrations of: 1.5 μM for E. coli PBP3; 0.75 μM for P. aeruginosa PBP3; 1 μM for A. baumannii PBP1a; 0.2 μM for A. baumannii PBP3; and 0.25 μM for N. gonorrhoeae PBP2. Bocillin-FL was at 0.1 μM (0.05 μM with A. baumannii PBP1a) and beta-lactam concentrations ranged from 0-1,000 μM. E. coli PBP3 was incubated with increasing concentrations of ampicillin in a black 384-well microplate (Corning) for 30 minutes. P. aeruginosa PBP3 was incubated for 15 minutes with aztreonam, whereas A. baumannii PBP1a and PBP3 were incubated for 15 minutes with meropenem, and then Bocillin-FL was added followed immediately by the FP measurement for up to 60 minutes. […] The beta-lactam potency was reported as the concentration of beta-lactam required to reduce the amount of PBP bound-Bocillin-FL by 50% (EC50). […] The EC50 of aztreonam was determined to be <0.5 μM for P. aeruginosa PBP3. […] Binding assays for boronic acid PBP inhibitors were performed in an identical fashion for the respective PBPs.

Structure (SMILES) | IC50 [µM]
CCN1CCN(C(=O)N[C@@H](C(=O)N[C@H]2Cc3ccc(F)c(C(=O)O)c3OB2O)c2ccc(P(=O)(O)O)cc2)C(=O)C1=O (single isomer, unassigned) [Example 10] | < 10
CS(=O)(=O)N1CCN(C(=O)N[C@@H](C(=O)N[C@H]2Cc3cccc(C(=O)O)c3OB2O)c2ccc(P(=O)(O)O)c(F)c2F)C1=O (single isomer, unassigned) [Example 13] | < 10
CS(=O)(=O)N1CCN(C(=O)N[C@@H](C(=O)N[C@H]2Cc3cccc(C(=O)O)c3OB2O)c2ccc(P(=O)(O)O)c(F)c2)C1=O (single isomer, unassigned) [Example 15] | < 10
CS(=O)(=O)N1CCN(C(=O)N[C@@H](C(=O)N[C@H]2Cc3cccc(C(=O)O)c3OB2O)c2cc(F)c(P(=O)(O)O)c(F)c2)C1=O (single isomer, unassigned) [Example 18] | < 10
N[C@@H](C(=O)N[C@H]1Cc2cccc(C(=O)O)c2OB1O)c1ccc(P(=O)(O)O)cc1 (single isomer, unassigned) [Example 171] | 50 to 250
CS(=O)(=O)N1CCN(C(=O)NC(C(=O)N[C@H]2Cc3cccc(C(=O)O)c3OB2O)c2ccc(P(=O)(O)O)c(Cl)c2)C1=O (stereo partly drawn) [Example 11, (3R)-3-(2-(3-chloro-4-phosphonophenyl)-2-(3-(methylsulfonyl)-2-oxoimidazolidine-1-carboxamido)acetamido)-2-hydroxy-3,4-dihydro-2H-benzo[e][1,2]oxaborinine-8-carboxylic acid] | < 10
NC(C(=O)N[C@H]1Cc2ccc(F)c(C(=O)O)c2OB1O)c1ccc(P(=O)(O)O)cc1 (stereo partly drawn) [Example 14, (3R)-3-(2-amino-2-(4-phosphonophenyl)acetamido)-7-fluoro-2-hydroxy-3,4-dihydro-2H-benzo[e][1,2]oxaborinine-8-carboxylic acid] | > 250
CS(=O)(=O)N1CCN(C(=O)N[C@@H](C(=O)N[C@H]2Cc3ccc(F)c(C(=O)O)c3OB2O)c2ccc(P(=O)(O)O)c(F)c2F)C1=O [Example 16, (R)-3-((R)-2-(2,3-difluoro-4-phosphonophenyl)-2-(3-(methylsulfonyl)-2-oxoimidazolidine-1-carboxamido)acetamido)-7-fluoro-2-hydroxy-3,4-dihydro-2H-benzo[e][1,2]oxaborinine-8-carboxylic acid] | < 10
CS(=O)(=O)N1CCN(C(=O)NC(C(=O)N[C@H]2Cc3cccc(C(=O)O)c3OB2O)c2ccc(P(=O)(O)O)c(O)c2)C1=O (stereo partly drawn) [Example 17, (3R)-2-hydroxy-3-(2-(3-hydroxy-4-phosphonophenyl)-2-(3-(methylsulfonyl)-2-oxoimidazolidine-1-carboxamido)acetamido)-3,4-dihydro-2H-benzo[e][1,2]oxaborinine-8-carboxylic acid] | < 10
CCN1CCN(C(=O)NC(C(=O)N[C@H]2Cc3cccc(C(=O)O)c3OB2O)c2ccc(CP(=O)(O)O)cc2)C(=O)C1=O (stereo partly drawn) [Example 20, (3R)-3-(2-(4-ethyl-2,3-dioxopiperazine-1-carboxamido)-2-(4-(phosphonomethyl)phenyl)acetamido)-2-hydroxy-3,4-dihydro-2H-benzo[e][1,2]oxaborinine-8-carboxylic acid] | < 10
CCN1CCN(C(=O)NC(C(=O)N[C@H]2Cc3cccc(C(=O)O)c3OB2O)c2ccc(P(=O)(O)O)c(O)c2)C(=O)C1=O (stereo partly drawn) [Example 21, (3R)-3-(2-(4-ethyl-2,3-dioxopiperazine-1-carboxamido)-2-(3-hydroxy-4-phosphonophenyl)acetamido)-2-hydroxy-3,4-dihydro-2H-benzo[e][1,2]oxaborinine-8-carboxylic acid] | < 10
CC(=O)NC(C(=O)N[C@H]1Cc2cccc(C(=O)O)c2OB1O)c1ccc(P(=O)(O)O)cc1 (stereo partly drawn) [Example 26, (3R)-3-(2-acetamido-2-(4-phosphonophenyl)acetamido)-2-hydroxy-3,4-dihydro-2H-benzo[e][1,2]oxaborinine-8-carboxylic acid] | < 10
